Measured values reported in patent publication US10351559B2, “Maleate salts of a B-RAF kinase inhibitor, crystalline forms, methods of preparation, and uses therefore” (BeiGene, Ltd., priority 2015, dated 2019).
Where a name gives a salt, the structure may show the parent alone.

Columns and labels:
HT-29 cells = test: CellTiter-Glo luminescent cell viability assay; format: cell-based; settings: Homo sapiens, 72 h; HT-29, BRAF V600E, 3-day exposure, N=2; read-out: Compound 1 EC50 (mean ± SD)
Experimental: (§1) A375, Sk-Mel-28, HT29, Colo205, A431, and HCC827 cell lines were purchased from American Type Culture Collection. All the cell lines used in the cellular assays were cultured in the designated medium supplemented with 10% fetal bovine serum (FBS, Thermo Scientific), 100 units/mL penicillin (Gibco), 0.1 mg/mL streptomycin (Gibco) and in a humidified 37° C. environment with 5% CO2. Cell lines were reinstated from frozen stocks laid down within three passages from the original cells purchased and passaged no more than 30 times.
(§2) The growth-inhibitory activity of compounds in a panel of melanoma, colon, breast and lung cancer cells was determined using CellTiter-Glo luminescent cell viability assay (Promega). The number of cells seeded per well of a 96-well plate was optimized for each cell line to ensure logarithmic growth over the 3 days treatment period. Cells were left to attach for 16 hours and then treated with a 10-point dilution series in duplicate. Following a 3-day exposure to the compound, a volume of CellTiter-Glo reagent equal to the volume of cell culture medium present in each well was added. Mixture was placed on an orbital shaker for 2 minutes to allow cell lysing, followed by 10 minutes incubation at room temperature to allow development and stabilization of luminescent signal. Luminescent signal was measured using PHERAstar FS reader (BMG Labtech). EC50 values for cell viability were determined with GraphPad Prism software.

A375 cells = test: CellTiter-Glo luminescent cell viability assay; format: cell-based; settings: Homo sapiens, A-375, 72 h; A375, BRAF V600E, 3-day exposure, N=2; read-out: Compound 1 EC50 (mean ± SD)
Experimental: as §1, §2

Colo-205 cells = test: CellTiter-Glo luminescent cell viability assay; format: cell-based; settings: Homo sapiens, 72 h; Colo-205, BRAF V600E, 3-day exposure, N=2; read-out: Compound 1 EC50 (mean ± SD)
Experimental: as §1, §2

Sk-Mel-28 cells = test: CellTiter-Glo luminescent cell viability assay; format: cell-based; settings: Homo sapiens, 72 h; Sk-Mel-28, BRAF V600E, 3-day exposure, N=2; read-out: Compound 1 EC50 (mean ± SD)
Experimental: as §1, §2

[1] = short-term stability study (1 week, 60° C. and 40° C./75% RH); format: physicochemical; settings: for TRS %: sesqui-maleate salt
Experimental: Weighed about 2 mg (For XRPD: 10 mg) of each of the above salts in a 40 mL glass vial, separately. The free base form was used as control. The closed samples were capped and sealed with parafilm, while the opened samples were covered by aluminum foil with pinhole. All the samples were stored in stability chamber or dry oven at the corresponding conditions (60° C. and 40° C./75% RH) for 1 week.

## O=C1CCc2c(Oc3ccc4c(c3)[C@@H]3[C@H](O4)[C@H]3c3nc4ccc(C(F)(F)F)cc4[nH]3)ccnc2N1 [5-(((1R,1aS,6bR)-1-(6-(trifluoromethyl)-1H-benzo[d]imidazol-2-yl)-1a,6b-dihydro-1H-cyclopropa[b]benzofuran-5-yl)oxy)-3,4-dihydro-1,8-naphthyridin-2(1H)-one sesqui-maleate salt]
HT-29 cells
  EC50: 138 ± 13 nM
A375 cells
  EC50: 137 ± 0.5 nM
Colo-205 cells
  EC50: 147 ± 0.6 nM
Sk-Mel-28 cells
  EC50: 251 ± 54 nM
[1]; 0 day
  TRS %: 0.08%
[1]; 40° C./75% RH, 1 week
  TRS %: 0.10%
[1]; 60° C., 1 week
  TRS %: 0.17%
[1]; after one week at 60° C. and 40° C./75% RH
  chemical degradation: did not show degradations
[1]; both conditions after 1 week
  appearance by visual observation: no change
